# According to US5607931A, “1,2-disubstituted ethly amides as inhibitors of ACAT” (Schering Corporation, priority 1995, dated 1997):
# Tests used:
# [1] = system: liver cholesterol esters; assay: In Vivo Assay of Hypolipidemic Agents Using the Hyperlipidemic Hamster; conditions: Mesocricetus auratus, 168 h; 50 mpk, oral gavage in corn oil once daily, seven days; 0.5% cholesterol diet; percent reduction versus control; read-out: In Vivo 50 mpk % Redn. L/CE
# Procedure: In Vivo Assay of Hypolipidemic Agents Using the Hyperlipidemic Hamster
# Hamsters are separated into groups of six and given a control cholesterol diet (Purina Chow #5001 containing 0.5% cholesterol) for seven days. Diet consumption is monitored to determine dietary cholesterol exposure in the face of test compounds. The animals are dosed with the test compound once daily beginning with the initiation of diet. Dosing is by oral gavage of 0.2 mL of corn oil alone (control group) or solution (or suspension) of test compound in corn oil. All animals moribund or in poor physical condition are euthanized. After seven days, the animals are anesthetized by IM injection of ketamine and sacrificed by decapitation. Blood is collected into vacutainer tubes containing EDTA for plasma lipid analysis and the liver excised for tissue lipid analysis. Data is reported as percent reduction of lipid versus control.
# [2] = target: T1, ACAT (Rattus norvegicus, UniProt Q7TQM4); assay: ACAT Assay (in vitro), transfer of tritiated oleic acid from acyl-CoA to cholesterol, rat liver microsomes; assay type: biochemical; conditions: for inhibition at 10 µM: read-out: % ACAT Inhib. @10 μM; for IC50: 0.1 to 25 μM
# T1 construct: Rat liver microsomes are used as the source of ACAT; from tissue; host or cells: rat liver microsomes
# T1 sequence (Q7TQM4 1-524): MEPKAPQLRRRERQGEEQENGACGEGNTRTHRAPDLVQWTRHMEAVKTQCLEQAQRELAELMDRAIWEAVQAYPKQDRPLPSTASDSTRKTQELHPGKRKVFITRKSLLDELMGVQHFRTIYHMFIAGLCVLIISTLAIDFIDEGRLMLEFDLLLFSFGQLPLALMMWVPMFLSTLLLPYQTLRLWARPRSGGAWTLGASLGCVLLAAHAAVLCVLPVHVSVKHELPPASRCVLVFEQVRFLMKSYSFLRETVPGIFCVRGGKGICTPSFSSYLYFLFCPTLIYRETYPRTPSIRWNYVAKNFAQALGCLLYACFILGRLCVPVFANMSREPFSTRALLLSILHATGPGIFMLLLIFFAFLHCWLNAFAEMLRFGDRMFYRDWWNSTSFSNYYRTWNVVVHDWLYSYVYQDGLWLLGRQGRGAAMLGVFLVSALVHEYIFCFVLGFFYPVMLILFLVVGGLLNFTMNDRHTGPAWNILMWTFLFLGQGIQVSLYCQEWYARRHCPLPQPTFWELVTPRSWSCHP
# Procedure: This assay measures the activity of ACAT by measuring the ACAT-mediated transfer of tritiated oleic acid from acyl-CoA to cholesterol to give labelled cholesterol oleate. Rat liver microsomes are used as the source of ACAT. Assays are performed in round bottom microtiterplates using a total incubation volume of 50 μL. Each incubation well receives 10 μL assay buffer (0.5M KHPO4, 10 μM dithiothreitol, pH 7.4), 7.5 μL of 40 mg/mL BSA (Bovine Serum Albumin) and 12.5 μg of microsomal protein. The test compound (in sufficient amount to bring the final concentration to from 0.1 to 25 μM), reference compound, or vehicle control is added and the final volume brought to 47 μL. The microtiterplate is then floated on the surface of a 37° C. water bath for fifteen minutes. Incubations are started by the addition of 3 μL ^3 H-acyl CoA (1 μCi/well, final concentration of 10 μM acyl CoA). The plate is then returned to the water bath for 15 minutes. The incubations are then terminated by application of 15 μL from each incubation to individual lanes on a thin layer plate (Silica Gel GF 20×20 cm). Standards are applied to several lanes so that the cholesterol ester band can be identified. After drying, the plates are eluted with 90:10:1 petroleum ether:diethyl ether:acetic acid. The standards are visualized via iodine vapor, and the regions corresponding to cholesterol ester are scraped into 7 mL scintillation vials. 4 mL of scintillant are added to each vial, and the radioactivity quantified. Background count is determined by the boiled controls. Full activity is determined by activity in the presence of vehicle. The percent inhibition is calculated by subtracting the background from both control and test samples, and the test value is calculated as a percentage of the control. For IC50 determinations, the inhibition is plotted against drug does on a log scale and the concentration at which 50% inhibition is obtained is determined.
SMILES,change in vivo at 50 mg/kg [1],inhibition at 10 µM [2],IC50 [2]
CCCCCCCCCCCCCCCC(=O)NC(C(=O)N1CCN(C)CC1)c1ccccc1 (centres unmarked),-17%,95%,1800 nM
CCCCCCCC/C=C\CCCCCCCC(=O)NC(CN1CCC(OC)(OC)CC1)c1ccccc1 (centres unmarked),-18%,93%,500 nM
CCCCCCCCCCCCCC(=O)NC(CN1CCN(C)CC1)c1ccccc1 (centres unmarked),0%,81%,7000 nM
CCCCCCCCCCC(C)(C)C(=O)NC(CN1CCN(C)CC1)c1ccccc1 (centres unmarked),0%,94%,390 nM
O=C(NC(CN1CCOCC1)c1ccccc1)C(c1ccccc1)c1ccccc1 (centres unmarked),-15%,94%,3000 nM
CCCCCCCC/C=C\CCCCCCCC(=O)NC(Cc1ccccc1)C1CCCCC1 (centres unmarked),0%,90%,170 nM
CCCCCCCC/C=C\CCCCCCCC(=O)NC(CN1CCC(=O)CC1)c1ccccc1 (centres unmarked),,100%,180 nM
CN1CCN(CC(NC(=O)CCCCCCCCCCOc2ccccc2)c2ccccc2)CC1 (centres unmarked),0%,80%,4000 nM
O=C(NC(CN1CCC2(CC1)OCCO2)c1ccccc1)C(c1ccccc1)c1ccccc1 (centres unmarked),-26%,94%,300 nM
CCCCCCCC/C=C\CCCCCCCC(=O)NC(CN1CCC2(CCCC2)CC1)c1ccccc1 (centres unmarked),0%,59%,
CCCCCCCCCCCC(=O)NC(CN1CCN(C)CC1)c1ccccc1 (centres unmarked),0%,58%,
O=C(CCCCCCCCCCOc1ccccc1)NC(CN1CCCCC1)c1ccccc1 (centres unmarked),0%,84%,5000 nM
CCCCCCCCCCCCC(C)(C)C(=O)NC(CN1CCN(C)CC1)c1ccccc1 (centres unmarked),-44%,95%,290 nM
CCCCCCCC/C=C\CCCCCCCC(=O)NC(CN1CCN(C(=O)OC(C)(C)C)CC1)c1ccccc1 (centres unmarked),-22%,100%,60 nM
CCCCCC/C=C\CCCCCCCC(=O)NC(CN1CCN(C)CC1)c1ccccc1 (centres unmarked),-37%,97%,160 nM
CCCCCCCC/C=C\CCCCCCCC(=O)NC(CN1CCC(O)CC1)c1ccccc1 (centres unmarked),-25%,98%,340 nM
O=C(NC(CN1CCC(=NO)CC1)c1ccccc1)C(c1ccccc1)c1ccccc1 (centres unmarked),0%,94%,400 nM
O=C(NC(CN1CCC(O)CC1)c1ccccc1)C(c1ccccc1)c1ccccc1 (centres unmarked),-25%,83%,3000 nM
O=C(NC(CN1CCCCC1)c1ccccc1)C(c1ccccc1)c1ccccc1 (centres unmarked),0%,64%,

SMILES,change in vivo at 50 mg/kg [1],inhibition at 10 µM [2],IC50 [2]
CCCCCCCCCCCCCCCC(=O)NC(CN1CCC2(CC1)OCCO2)c1ccccc1 (centres unmarked),-19%,99%,160 nM
CC(=O)OC1CCN(CC(NC(=O)C(c2ccccc2)c2ccccc2)c2ccccc2)CC1 (centres unmarked),-25%,59%,
CCCCCCCC/C=C\CCCCCCCC(=O)NC(CN1CCOCC1)c1ccccc1 (centres unmarked),-21%,99%,300 nM
CCCCCCCCCCCCCCC(C)(C)C(=O)NC(CN1CCN(C)CC1)c1ccccc1 (centres unmarked),-40%,97%,1100 nM
CCCCCCCC/C=C\CCCCCCCC(=O)NC(CN1CCC(=NO)CC1)c1ccccc1 (centres unmarked),-21%,100%,30 nM
CCCCCCCC/C=C\CCCCCCCC(=O)NC(CN1CCCCC1)c1ccccc1 (centres unmarked),-12%,94%,1200 nM
CCCCCCCC/C=C\CCCCCCCC(=O)NC(CC1CCCCC1)c1ccccc1 (centres unmarked),,92%,180 nM
CCCCCCCCCCCCCCCC(=O)NC(CN1CCN(C)CC1)c1ccccc1 (centres unmarked),-60%,87%,1200 nM
CCCCCCCC/C=C\CCCCCCCC(=O)NC(CN1CCC2(CC1)OCCO2)c1ccccc1 (centres unmarked),-35%,93%,10 nM
CCCCCCCC/C=C\CCCCCCCC(=O)NC(CN1CCC(NC(=O)C(F)(F)F)CC1)c1ccccc1 (centres unmarked),0%,90%,800 nM
CCCCCCCC/C=C\CCCCCCCC(=O)NC(CN1CCC(N)CC1)c1ccccc1 (centres unmarked),-59%,-90%,
CN1CCN(CC(NC(=O)C(c2ccccc2)c2ccccc2)c2ccccc2)CC1 (centres unmarked),-39%,71%,4500 nM
CCCCCCCCCCCCCCCCCC(=O)NC(CN1CCN(C)CC1)c1ccccc1 (centres unmarked),-25%,90%,500 nM
O=C1CCN(CC(NC(=O)C(c2ccccc2)c2ccccc2)c2ccccc2)CC1 (centres unmarked),0%,90%,500 nM
COC1CCN(CC(NC(=O)C(c2ccccc2)c2ccccc2)c2ccccc2)CC1 (centres unmarked),-30%,88%,1000 nM
CCCCCCCC/C=C\CCCCCCCC(=O)NC(CN1CCN(C)CC1)c1ccccc1 (centres unmarked),-55%,98%,300 nM
CCCCCCCC/C=C\CCCCCCCC(=O)NC(CN1CCC(OC)CC1)c1ccccc1 (centres unmarked),-24%,93%,150 nM
CC(=O)CC(=O)OC1CCN(CC(NC(=O)C(c2ccccc2)c2ccccc2)c2ccccc2)CC1 (centres unmarked),,53%,
CCCCCCCC/C=C\CCCCCCCC(=O)NC(CN1CCNCC1)c1ccccc1 (centres unmarked),-54%,64%,
